Source: patent publication US10336702B2, “Pharmaceutically active compounds” (BERGENBIO ASA, priority 2015, dated 2019)

How the values were obtained:
[1] = biological target: T1, Akt1 (Homo sapiens, UniProt P31749); experiment: Akt activation assay (PDK1-mediated activation, LANCE Ultra crosstide TR-FRET), Akt1; type: biochemical; details: read-out: Biological Assay 1 IC50 (nM) Akt1
T1 construct: unspecified tag, removed (detagged) (cleaved yes); purchased SignalChem and Proteros (Akt1); Merck Millipore (PDK1) 14-452 (PDK1); none given for Akt1
Outline: (§1)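 TR-FRET read-out (665/615 nm ratio) after Eu-anti-phospho-crosstide antibody, 1 h. Reaction: compound preincubated with Akt isoform, then 5 nM PDK1, lipid vesicles with 0.55 μM PtdIns(3,4,5)P3, 100 μM ATP, 100 nM crosstide, 30 min, EDTA stop. IC50 from 4-parameter equation.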

[2] = biological target: T2, Akt2 (Homo sapiens, UniProt P31751); experiment: Akt activation assay (PDK1-mediated activation, LANCE Ultra crosstide TR-FRET), Akt2; type: biochemical; details: read-out: Biological Assay 1 IC50 (nM) Akt2
T2 construct: unspecified tag, removed (detagged) (cleaved yes); purchased SignalChem and Proteros (Akt2); Merck Millipore (PDK1) 14-452 (PDK1); none given for Akt2
Outline: as §1

[3] = biological target: T3, Akt3 (Homo sapiens, UniProt Q9Y243); experiment: Akt activation assay (PDK1-mediated activation, LANCE Ultra crosstide TR-FRET), Akt3; type: biochemical; details: read-out: Biological Assay 1 IC50 (nM) Akt3
T3 construct: unspecified tag, removed (detagged) (cleaved yes); purchased SignalChem and Proteros (Akt3); Merck Millipore (PDK1) 14-452 (PDK1); none given for Akt3
Outline: as §1

[4] = biological target: T4, p-Akt1 in LNCaP cells (Homo sapiens, UniProt P31749); experiment: Phospho-Akt cellular SureFire assay, p-Akt1 in LNCaP cells; type: cell-based; details: read-out: Biological Assay 2 IC50 (nM) Akt1 LNCaP
T4 construct: SureFire assays to detect cellular p-Akt1, p-Akt2 and p-Akt3 levels in WM115 cells (Akt2/3) and LNCaP cells (Akt1); endogenous in cells; host or cells: LNCaP (ECACC 89110211)
Outline: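 Phospho-Thr308 Akt1 detected by AlphaScreen SureFire proximity beads in LNCaP lysates after 15 min compound treatment at 37 °C in 0.1% FBS medium, unstimulated, 0.3% DMSO. Cells plated at 5×10^4/well overnight; IC50 from a 4-parameter equation.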

[5] = biological target: T5, p-Akt2 in WM115 cells (Homo sapiens, UniProt P31751); experiment: Phospho-Akt cellular SureFire assay, p-Akt2 in WM115 cells; type: cell-based; details: insulin stimulated, read-out: Biological Assay 2 IC50 (nM) Akt2 WM115
T5 construct: SureFire assays to detect cellular p-Akt1, p-Akt2 and p-Akt3 levels in WM115 cells (Akt2/3) and LNCaP cells (Akt1); endogenous in cells; host or cells: WM115 (ECACC 91061232), insulin-stimulated
Outline: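 Readout is a bead-proximity SureFire assay pairing a pThr308 Akt antibody with a total Akt2 antibody, lysate and beads incubated 2 h plus 2 h at room temperature in the dark. Before lysis, serum-starved WM115 cells received 100 nM insulin (10 min), then test compound (15 min, 0.3% DMSO); IC50 by 4-parameter equation.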

[6] = biological target: T6, p-Akt3 in WM115 cells (Homo sapiens, UniProt Q9Y243); experiment: Phospho-Akt cellular SureFire assay, p-Akt3 in WM115 cells; type: cell-based; details: insulin stimulated, read-out: Biological Assay 2 IC50 (nM) Akt3 WM115
T6 construct: SureFire assays to detect cellular p-Akt1, p-Akt2 and p-Akt3 levels in WM115 cells (Akt2/3) and LNCaP cells (Akt1); endogenous in cells; host or cells: WM115 (ECACC 91061232), insulin-stimulated
Outline: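 pThr308-Akt3 in lysates was quantified by bead-proximity SureFire detection, pairing a phospho-specific antibody with a total Akt3 antibody. Before lysis, WM115 cells in 0.1% FBS medium were treated for 15 min at 37 °C with compound (final DMSO 0.3%), following a 10 min stimulation with 100 nM insulin. IC50 was obtained by 4-parameter fitting.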

T6 sequence (Q9Y243 whole entry): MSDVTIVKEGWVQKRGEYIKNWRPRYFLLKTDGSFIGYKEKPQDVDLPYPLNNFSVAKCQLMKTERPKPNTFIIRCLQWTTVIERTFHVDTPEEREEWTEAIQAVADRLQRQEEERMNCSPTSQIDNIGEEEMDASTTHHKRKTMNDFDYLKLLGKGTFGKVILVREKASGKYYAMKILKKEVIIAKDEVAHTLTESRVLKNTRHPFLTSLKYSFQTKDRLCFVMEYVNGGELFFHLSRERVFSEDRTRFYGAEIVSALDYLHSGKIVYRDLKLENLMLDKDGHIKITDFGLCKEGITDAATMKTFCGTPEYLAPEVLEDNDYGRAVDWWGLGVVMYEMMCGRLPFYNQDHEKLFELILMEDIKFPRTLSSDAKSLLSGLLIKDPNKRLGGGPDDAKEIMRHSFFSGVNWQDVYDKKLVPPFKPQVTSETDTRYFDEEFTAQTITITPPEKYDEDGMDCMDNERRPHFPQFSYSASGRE
T3 sequence (Q9Y243 whole entry): as above
T4 sequence (P31749 whole entry): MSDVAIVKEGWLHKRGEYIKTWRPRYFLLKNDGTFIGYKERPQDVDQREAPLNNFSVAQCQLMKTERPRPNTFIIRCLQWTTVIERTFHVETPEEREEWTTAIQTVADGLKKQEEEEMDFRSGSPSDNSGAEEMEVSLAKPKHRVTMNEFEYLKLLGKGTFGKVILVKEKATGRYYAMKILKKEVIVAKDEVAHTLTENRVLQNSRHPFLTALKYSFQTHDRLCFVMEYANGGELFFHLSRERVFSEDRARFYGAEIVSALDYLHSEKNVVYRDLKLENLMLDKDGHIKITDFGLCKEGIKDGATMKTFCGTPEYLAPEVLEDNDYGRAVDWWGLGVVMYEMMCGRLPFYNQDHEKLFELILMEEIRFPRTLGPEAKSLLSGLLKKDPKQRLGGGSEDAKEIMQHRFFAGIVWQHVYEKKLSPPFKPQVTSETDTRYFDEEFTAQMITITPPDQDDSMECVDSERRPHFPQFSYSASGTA
T1 sequence (P31749 whole entry): as above
T2 sequence (P31751 whole entry): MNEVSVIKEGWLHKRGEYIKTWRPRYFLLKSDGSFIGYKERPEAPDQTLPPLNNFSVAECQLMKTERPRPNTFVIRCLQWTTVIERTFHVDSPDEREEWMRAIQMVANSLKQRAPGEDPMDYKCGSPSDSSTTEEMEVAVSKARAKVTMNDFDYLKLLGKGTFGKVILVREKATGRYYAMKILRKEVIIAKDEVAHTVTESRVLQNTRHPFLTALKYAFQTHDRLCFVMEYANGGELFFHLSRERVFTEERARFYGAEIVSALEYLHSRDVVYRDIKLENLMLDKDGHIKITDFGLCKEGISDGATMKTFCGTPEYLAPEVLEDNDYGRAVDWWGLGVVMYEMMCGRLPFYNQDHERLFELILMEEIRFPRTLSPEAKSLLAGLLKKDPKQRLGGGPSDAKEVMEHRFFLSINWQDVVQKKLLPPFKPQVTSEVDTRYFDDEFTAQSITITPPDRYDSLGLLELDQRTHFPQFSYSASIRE
T5 sequence (P31751 whole entry): as above

Row | SMILES | IC50 [1] | IC50 [2] | IC50 [3] | IC50 [4] | IC50 [5] | IC50 [6]
1 | CCC(=O)N(C)[C@H]1CC[C@H](CC(=O)Nc2cnc(-c3ccc([C@]4(N)C[C@](C)(O)C4)cc3)c(-c3ccccc3)c2)CC1 [Example 98, N-(4-(2-((6-(4-(trans-1-amino-3-hydroxy-3-methylcyclobutyl)phenyl)-5-phenylpyridin-3-yl)amino)-2-oxoethyl)cyclohexyl)-N-methylpropionamide] | 3500 nM | 53 nM | 5 nM | 880 nM | 470 nM | 7 nM
2 | CC(C)C(=O)N(C)[C@H]1CC[C@H](CC(=O)Nc2cnc(-c3ccc([C@]4(N)C[C@](C)(O)C4)cc3)c(-c3ccccc3)c2)CC1 [Example 99, N-(4-(2-((6-(4-(trans-1-amino-3-hydroxy-3-methylcyclobutyl)phenyl)-5-phenylpyridin-3-yl)amino)-2-oxoethyl)cyclohexyl)-N-methylisobutyramide] | 2400 nM | 44 nM | 6 nM | 670 nM | 390 nM | 12 nM
3 | CC(=O)N(C(C)C)[C@H]1CC[C@H](CC(=O)Nc2cc(-c3ccccc3)c(-c3ccc([C@]4(N)C[C@](C)(O)C4)cc3)nn2)CC1 [Example 100, N-(6-(4-(trans-1-amino-3-hydroxy-3-methylcyclobutyl)phenyl)-5-phenylpyridazin-3-yl)-2-(trans-4-(N-isopropylacetamido)cyclohexyl)acetamide] | 2400 nM | 170 nM | 8 nM | 790 nM | 1000 nM | 26 nM
4 | COC(=O)N(C(C)C)[C@H]1CC[C@H](CC(=O)Nc2cc(-c3ccccc3)c(-c3ccc([C@]4(N)C[C@](C)(O)C4)cc3)nn2)CC1 [Example 101, Methyl (trans-4-(2-((6-(4-(trans-1-amino-3-hydroxy-3-methylcyclobutyl)phenyl)-5-phenylpyridazin-3-yl)amino)-2-oxoethyl)cyclohexyl)(isopropyl)carbamate] | 8900 nM | 120 nM | 7 nM | 5900 nM | 2600 nM | 48 nM
5 | CC(=O)N(C(C)C)[C@H]1CC[C@H](CC(=O)Nc2cc(-c3ccccc3)c(-c3ccc([C@]4(N)C[C@](C)(O)C4)cc3)cn2)CC1 [Example 102, N-(5-(4-(trans-1-amino-3-hydroxy-3-methylcyclobutyl)phenyl)-4-phenylpyridin-2-yl)-2-(trans-4-(N-isopropylacetamido)cyclohexyl)acetamide] | 4100 nM | 140 nM | 16 nM | 1800 nM | 1700 nM | 57 nM
6 | CCC(=O)N(C(C)C)[C@H]1CC[C@H](CC(=O)Nc2cc(-c3ccccc3)c(-c3ccc([C@]4(N)C[C@](C)(O)C4)cc3)nn2)CC1 [Example 104, N-(trans-4-(2-((6-(4-(trans-1-amino-3-hydroxy-3-methylcyclobutyl)phenyl)-5-phenylpyridazin-3-yl)amino)-2-oxoethyl)cyclohexyl)-N-isopropylpropionamide] | 3200 nM | 120 nM | 10 nM | 1900 nM | 1300 nM | 27 nM
7 | CC(C)N(C(=O)C1CC1)[C@H]1CC[C@H](CC(=O)Nc2cc(-c3ccccc3)c(-c3ccc([C@]4(N)C[C@](C)(O)C4)cc3)nn2)CC1 [Example 105, N-(trans-4-(2-((6-(4-(trans-1-amino-3-hydroxy-3-methylcyclobutyl)phenyl)-5-phenylpyridazin-3-yl)amino)-2-oxoethyl)cyclohexyl)-N-isopropylcyclopropanecarboxamide] | 4600 nM | 210 nM | 8 nM | 5300 nM | 1400 nM | 26 nM
8 | CCN(C(C)=O)[C@H]1CC[C@H](CC(=O)Nc2cc(-c3ccccc3)c(-c3ccc([C@]4(N)C[C@](C)(O)C4)cc3)nn2)CC1 [Example 106, N-(6-(4-(trans-1-amino-3-hydroxy-3-methylcyclobutyl)phenyl)-5-phenylpyridazin-3-yl)-2-(trans-4-(N-ethylacetamido)cyclohexyl)acetamide] | > 13000 nM | 210 nM | 8 nM | 4000 nM | 1500 nM | 25 nM
9 | COCC(=O)N(C)[C@H]1CC[C@H](CC(=O)Nc2cc(-c3ccccc3)c(-c3ccc([C@]4(N)C[C@](C)(O)C4)cc3)cn2)CC1 [Example 107, N-(trans-4-(2-((5-(4-(trans-1-amino-3-hydroxy-3-methylcyclobutyl)phenyl)-4-phenylpyridin-2-yl)amino)-2-oxoethyl)cyclohexyl)-2-methoxy-N-methylacetamide] | > 30000 nM | 94 nM | 9 nM | 7300 nM | 390 nM | 9 nM
10 | CCC(=O)N(CC)[C@H]1CC[C@H](CC(=O)Nc2cc(-c3ccccc3)c(-c3ccc([C@]4(N)C[C@](C)(O)C4)cc3)nn2)CC1 [Example 113, N-(trans-4-(2-((6-(4-(trans-1-amino-3-hydroxy-3-methylcyclobutyl)phen)-5-phenylpyridazin-3-yl)amino)-2-oxoethyl)cyclohexyl)-N-ethylpropionamide] | > 14000 nM | 130 nM | 8 nM | 4100 nM | 510 nM | 7 nM
11 | CCN(C(=O)C1CC1)[C@H]1CC[C@H](CC(=O)Nc2cc(-c3ccccc3)c(-c3ccc([C@]4(N)C[C@](C)(O)C4)cc3)nn2)CC1 [Example 114, N-(trans-4-(2-((6-(4-(trans-1-amino-3-hydroxy-3-methylcyclobutyl)phenyl)-5-phenylpyridazin-3-yl)amino)-2-oxoethyl)cyclohexyl)-N-ethylcyclopropanecarboxamide] | > 23000 nM | 110 nM | 7 nM | 3300 nM | 440 nM | 5 nM
12 | CC(=O)N(CC(F)(F)F)[C@H]1CC[C@H](CC(=O)Nc2cc(-c3ccccc3)c(-c3ccc([C@]4(N)C[C@](C)(O)C4)cc3)cn2)CC1 [Example 117, N-(5-(4-(trans-1-amino-3-hydroxy-3-methylcyclobutyl)phenyl)-4-phenylpyridin-2-yl)-2-(trans-4-(N-(2,2,2-trifluoroethyl)acetamido)cyclohexyl)acetamide] | > 24000 nM | 290 nM | 42 nM | 12000 nM | 980 nM | 33 nM
13 | CCN(C(=O)OC)[C@H]1CC[C@H](CC(=O)Nc2cnc(-c3ccc([C@]4(N)C[C@](C)(O)C4)cc3)c(-c3ccccc3)c2)CC1 [Example 118, Methyl (trans-4-(2-((6-(4-(trans-1-amino-3-hydroxy-3-methylcyclobutyl)phenyl)-5-phenylpyridin-3-yl)amino)-2-oxoethyl)cyclohexyl) (ethyl)carbamate] | 8500 nM | 110 nM | 5 nM | 1600 nM | 230 nM | 6 nM
14 | CC(=O)N(C(C)C)[C@H]1CC[C@H](CC(=O)Nc2cnc(-c3ccc([C@]4(N)C[C@](C)(O)C4)cc3)c(-c3ccccc3)c2)CC1 [Example 120, N-(6-(4-(trans-1-amino-3-hydroxy-3-methylcyclobutyl)phenyl)-5-phenylpyridin-3-yl)-2-(trans-4-(N-isopropylacetamido)cyclohexyl)acetamide] | 8600 nM | 65 nM | 7 nM | 1300 nM | 350 nM | 15 nM
